Measurements taken from the METLIN SMRT retention time set (Domingo-Almenara et al. 2019).

Experiment: gradient 5% acetonitrile 3 min, to 50% in 2 min, to 85% in 15 min, held 3 min, 100 µL/min
Conditions: column: Zorbax Extend-C18 2.1 x 50 mm; eluents: water / acetonitrile, 0.1% formic acid
Summary of the method: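 In both positive and negative ionization mode, a quadrupole time-of-flight mass spectrometer coupled to HPLC analyzed pure standards run in mixtures of ~100 molecules. The Zorbax Extend-C18 column (2.1 × 50 mm, 1.8 μm) was operated at 100 μL/min with water and acetonitrile, each containing 0.1% formic acid. The dead volume was 40 μL and the dwell volume 900 μL. Retention time came from adduct peaks that were computationally picked and individually inspected by hand.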

RP-LC retention time [s] | Compound
691 | N#Cc1cccc(C(=O)NC2CCN(c3cc(-c4ccccc4)[nH]n3)C2)c1 (stereo unspecified)
612 | COc1ccc(N2C(=O)CCS2(=O)=O)cc1S(=O)(=O)N1CCC(C(N)=O)CC1
785 | COC(=O)N1CCc2ccc(Br)cc2C1C(=O)Nc1ccon1 (stereo unspecified)
743 | C=C(C)COc1ccc2c(C)c(CCC(=O)N3CCN(c4ccccn4)CC3)c(=O)oc2c1C
1030 | O=C(Nc1cnc(-c2cccc(Cl)c2)nc1)c1ccsc1
1160 | CC(C)n1c(=O)oc2cc(-c3noc(-c4ccccc4F)n3)ccc21
667 | Cc1cc(C)c2sc(N(CCCn3ccnc3)C(=O)C3COc4ccccc4O3)nc2c1 (stereo unspecified)
608 | Cn1cc(CCN2CCN(S(=O)(=O)c3cccc(C#N)c3)CC2)c2cccnc21
656 | CNC(=O)c1nn(C)c2c1C(C)(C)Cc1cnc(Nc3ccc(N4CCN(C)CC4)cc3)nc1-2
1070 | Cc1cc(C)cc(NC(=O)C2CCN(S(=O)(=O)c3ccc4c(c3)sc(=O)n4C(C)C)CC2)c1
700 | COc1ccc(C2C(C(=O)NCCN(C)C)c3ccccc3C(=O)N2C)cc1OC (stereo unspecified)
609 | C=CCn1nnnc1NCc1ccc2c(c1)n(C)c(=O)n2C
643 | CCOC(=O)c1c(C)n(C)c2ccc(OCC(O)CN3CCCCC3)cc12 (stereo unspecified)
714 | CC(=O)Nc1ccc(NC(=O)c2nn(-c3ccccc3)c3ccccc3c2=O)cc1
579 | Cc1cccc2c(C(N)=O)cc(N3CCN(C)CC3)nc12
902 | COc1cc2c(cc1CNC(=O)Cn1cc(C(=O)c3ccco3)c3ccccc31)OCCCO2
806 | CC(Cc1ccco1)NC(=O)c1ccc2ccnc(N3CCN(c4ccccc4)CC3)c2c1 (stereo unspecified)
539 | Cc1ncnc2c1CCC(=O)N2Cc1cccnc1
782 | O=C(NCc1nnnn1C1CCCCC1)c1ccccc1C(F)(F)F
1160 | Cc1ccc(N2CC(c3noc(-c4cccc(OC(F)(F)F)c4)n3)CC2=O)cc1 (stereo unspecified)
879 | CC(Cc1ccco1)NC(=O)CN1C(=O)C2CCCCN2c2ccc(S(=O)(=O)N(C)C)cc21 (stereo unspecified)
849 | Cc1ccccc1C1CCCN1C(=O)c1nn(C)cc1Cl (stereo unspecified)

RP-LC retention time [s] | Compound
618 | CCCN1CCN(C(=O)C(CC)n2c3ccccc3c3cnn(C)c(=O)c32)CC1 (stereo unspecified)
582 | CC(C)n1cnc2cc(CNC(=O)Cc3ccsc3)ccc21
584 | O=C(NCCSc1ncc(-c2ccc(F)cc2)[nH]1)c1cccs1
593 | O=C(Cn1c(=O)c2cccn2c2ccccc21)NCCCN1CCCC1
982 | Cc1nc(Cn2cccc2C(=O)Nc2ccc(C(C)C)cc2)no1
861 | CC(C)(C)c1ccc(-c2nc(C3CC(=O)N(c4ccc(Cl)cc4)C3)no2)cc1 (stereo unspecified)
628 | CC(NC(=O)C1CCCN(C(=O)c2cc3sccc3n2C)C1)c1ccccc1 (stereo unspecified)
692 | CSc1ccc(CNC(=O)c2cn3ccccc3n2)cc1
1180 | Cc1ccc(Nc2c(-c3ccc(Br)cc3)nc3cnccn23)cc1Cl
637 | CCN1C(=O)c2cccnc2Sc2cc(NC(=O)c3cccnc3)ccc21
635 | COc1ccc(CN(Cc2cc(=O)n3cccc(C)c3n2)CC(C)C)cc1OC
1000 | CCc1ccc(-c2noc(CN3C(=O)COc4ccc(S(=O)(=O)CC)cc43)n2)cc1
798 | O=C(Nc1ccc(F)cc1)C1CCN(C(=O)c2ncn3c2COC(c2ccc(F)cc2)C3)CC1 (stereo unspecified)
594 | O=C(C1CCN(S(=O)(=O)c2ccc(-c3ccn[nH]3)o2)CC1)N1CCN(c2ccccn2)CC1
853 | O=C(Nc1cc(F)cc(F)c1)c1csc(-c2ccc(N3CCCC3)nc2)n1
812 | O=C(CSc1nc(N2CCCCC2)nc2ccccc12)Nc1cccc(Br)c1
650 | CC(Oc1ccc(-c2cnc3ccccc3n2)cc1)C(=O)N1CCN(c2ccccn2)CC1 (stereo unspecified)
781 | COc1ccc2c(C)c(CCC(=O)N[C@H](CC(C)C)C(=O)O)c(=O)oc2c1C
562 | CCC(=O)N1CCCn2nc(-c3cccnc3)cc2C1
636 | O=C(O)c1cc(N2CCN(CC(=O)N3CCCCCC3)CC2)ccc1NC(=O)C1CCC1
862 | O=C(Cn1cccc1-c1nnc(C2CCC2)o1)Nc1ccccc1
622 | CCCN1CCN(S(=O)(=O)c2cc(-c3nnc(C4CCC4)o3)co2)CC1

RP-LC retention time [s] | Compound
609 | CN1C(=O)C2CCCCN2c2ccc(C(=O)NCCN3CCCCC3)cc21 (stereo unspecified)
1050 | CC1CCC(C(=O)Nc2cc3c(cc2N2CCCCC2)n(C)c(=O)c(=O)n3C)CC1 (stereo unspecified)
781 | COc1cccc(NC(=O)C2CCCN(c3ncnc4c3nc3n4CCCCC3)C2)c1 (stereo unspecified)
965 | COc1c(C(=O)NC2CC2)sc2cc(Cl)ccc12
730 | O=C(NCc1ccc(Br)cc1)C1CCCN(c2ccnc(-c3ccc(F)cc3)n2)C1 (stereo unspecified)
754 | CCCCn1cc(S(=O)(=O)Nc2cc(C)ccc2F)c2cccnc21
907 | COc1ccccc1NC(=O)N(C)CCc1noc(COc2ccc(F)cc2)n1
900 | COc1ccccc1NC(=O)Cn1nc2c(Oc3cccc(Cl)c3)nccn2c1=O
897 | CCNc1nc(NC(C)C)nc(-n2cnc(SC)n2)n1
932 | CC(C)(C)C(=O)N1CCCC1c1nc2ccccc2s1 (stereo unspecified)
1030 | Cc1cc(C)c(NC(=O)Cn2cccc(-c3nc(-c4ccc(Br)cc4)no3)c2=O)c(C)c1
770 | COCC(=O)Nc1nc(-c2ccc3c(c2)N(C)C(=O)C(C)O3)cs1 (stereo unspecified)
943 | Cc1sc(NC(=O)c2ccccc2Br)nc1-c1ccc2c(c1)NC(=O)C(C)O2 (stereo unspecified)
556 | CC(C)NC(=O)Cc1cn2cc(Br)ccc2n1
630 | CCNC(=O)C1N(C(C)C)C(=O)C12CCCCC2 (stereo unspecified)
577 | O=C(Cc1nnc(-c2ccccc2)o1)NCc1ccccn1
801 | CCOc1ccccc1NC(=O)N1CCC(n2cnc3ccccc3c2=O)CC1
676 | COc1ccc(OC)c(NC(=O)c2nc(N(C)C)c3c(C)cc(C)nc3n2)c1
748 | c1ccc(-n2nnnc2Oc2ccc(CNCCc3c[nH]c4ccccc34)cc2)cc1
814 | Cc1nc(-c2nc(-c3cccs3)cs2)cn1CC(=O)Nc1cccc(F)c1
875 | COc1cc(NC(=O)Cc2csc3nc(-c4ccc(Cl)cc4)cn23)cc(OC)c1OC
734 | Clc1ccc(-c2ccc(CNc3ncn[nH]3)o2)c(Cl)c1

RP-LC retention time [s] | Compound
595 | O=C(O)CNS(=O)(=O)c1cccc2nsnc12
618 | Oc1cc2c(c(Cl)c1O)CCNCC2c1ccccc1 (stereo unspecified)
1200 | CCOC(=O)c1cc(C2CC2)nc2c1c(=O)n(Cc1ccc(F)cc1)c(=O)n2C
692 | CCOc1ccc(-n2c(SCC(=O)Nc3ncn[nH]3)nc3ccsc3c2=O)cc1
980 | CSc1ccc(CNC(=O)c2nnn3c2COC(c2ccc(F)cc2)C3)cc1 (stereo unspecified)
756 | Cc1ccc(C2Cn3cnc(C(=O)N4CCC(C(=O)NC(C)c5ccccc5)CC4)c3CO2)cc1 (stereo unspecified)
675 | CN(Cc1ccccc1)c1ccc(-c2noc(CN3CCCC3)n2)cn1
748 | CCCn1cnnc1C1CCCCN1S(=O)(=O)c1cccc(C#N)c1 (stereo unspecified)
1080 | Cc1noc(C)c1-c1ccc(S(=O)(=O)N2CCN(c3ccccc3)CC2)cc1
804 | CCN1C(=O)C(CC(=O)NC2CCCCCC2)Sc2ncccc21 (stereo unspecified)
1150 | COC(=O)CCSCc1ccc(-c2onc(C)c2NC(=O)OC(C)c2ccccc2Cl)cc1 (stereo unspecified)
869 | O=C(Cn1c(=O)cc(-c2nc(C3CC3)no2)c2ccccc21)NC1CCCC1
746 | CCOc1ccc(-n2nnnc2CN2CCN(C(=O)c3cccs3)CC2)cc1
619 | O=C1CCCCC(CNC(=O)c2ccsc2)N1 (stereo unspecified)
918 | COc1cc(F)ccc1-c1ccnc2nc(-c3cccs3)nn12
891 | CS(=O)(=O)c1ccc(C(=O)Nc2ccc(Cl)c(-c3ccccn3)c2)c(Cl)c1
563 | Cc1ccc2c(C(=O)O)cc(NC(=O)C(C)C)cc2n1
1190 | CCCn1ccc2oc(C)c(C(=O)NC(C)c3ccc(C)cc3C)c2c1=O (stereo unspecified)
574 | Cn1nc(C(=O)N2CCCC2)c2c1CCN(C(=O)CCC(=O)NCCN1CCCCC1)C2
788 | Cc1ccc(Cn2nc(C(=O)NCc3ccco3)ccc2=O)cc1
982 | CCOc1ccc(N2CC(c3nc(-c4ccc5c(c4)OCO5)no3)CC2=O)cc1 (stereo unspecified)
586 | CCC(C)NC(=O)N1CCN(Cc2nc3cc(C(=O)N(C)C)ccc3n2C)CC1 (stereo unspecified)

Compound | RP-LC retention time [s]
COCCOC(=O)c1c(C)oc2ccc(OC(=O)N(C)C)cc12 | 830
COc1ccc(CNCCc2c(C)[nH]c3ccc(F)cc23)cc1OC | 571
Cn1cc(C(=O)NCc2cccc(C(F)(F)F)c2)c2cccnc21 | 818
